What was measured:
Assay in all cases: Biochemical Evaluation
[1] = molecular target: Dipeptidyl peptidase 2 (Homo sapiens, UniProt Q9UHL4)
Source text: (§1) Table 1 and 2: The compounds were biochemically evaluated against a panel consisting of all enzymatically active DASH enzymes (DPP4, DPP8, DPP9, DPP2, FAP) and PREP.

[2] = molecular target: T1, Prolyl endopeptidase (Homo sapiens, UniProt P48147)
T1 sequence (P48147 whole entry): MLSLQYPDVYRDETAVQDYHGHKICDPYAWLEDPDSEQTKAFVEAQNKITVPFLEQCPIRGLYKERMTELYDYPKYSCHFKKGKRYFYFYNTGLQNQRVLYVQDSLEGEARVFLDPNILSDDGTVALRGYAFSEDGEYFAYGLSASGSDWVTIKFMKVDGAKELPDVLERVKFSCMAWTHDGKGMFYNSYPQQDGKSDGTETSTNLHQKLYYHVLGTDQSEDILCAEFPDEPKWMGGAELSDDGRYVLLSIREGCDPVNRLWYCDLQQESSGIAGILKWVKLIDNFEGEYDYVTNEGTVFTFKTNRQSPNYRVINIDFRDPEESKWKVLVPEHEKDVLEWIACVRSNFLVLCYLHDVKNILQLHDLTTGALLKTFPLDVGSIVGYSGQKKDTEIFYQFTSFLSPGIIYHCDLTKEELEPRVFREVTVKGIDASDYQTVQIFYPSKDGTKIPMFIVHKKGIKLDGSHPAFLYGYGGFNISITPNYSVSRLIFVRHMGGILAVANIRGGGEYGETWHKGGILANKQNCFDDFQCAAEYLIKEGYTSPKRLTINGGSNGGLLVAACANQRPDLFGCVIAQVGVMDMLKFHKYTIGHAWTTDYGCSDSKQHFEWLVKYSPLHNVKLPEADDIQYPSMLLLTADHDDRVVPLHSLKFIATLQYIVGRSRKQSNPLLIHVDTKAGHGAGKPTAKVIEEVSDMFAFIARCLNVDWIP
Source text: as §1

[3] = molecular target: T2, Prolyl endopeptidase FAP (Homo sapiens, UniProt Q12884)
T2 sequence (Q12884 whole entry): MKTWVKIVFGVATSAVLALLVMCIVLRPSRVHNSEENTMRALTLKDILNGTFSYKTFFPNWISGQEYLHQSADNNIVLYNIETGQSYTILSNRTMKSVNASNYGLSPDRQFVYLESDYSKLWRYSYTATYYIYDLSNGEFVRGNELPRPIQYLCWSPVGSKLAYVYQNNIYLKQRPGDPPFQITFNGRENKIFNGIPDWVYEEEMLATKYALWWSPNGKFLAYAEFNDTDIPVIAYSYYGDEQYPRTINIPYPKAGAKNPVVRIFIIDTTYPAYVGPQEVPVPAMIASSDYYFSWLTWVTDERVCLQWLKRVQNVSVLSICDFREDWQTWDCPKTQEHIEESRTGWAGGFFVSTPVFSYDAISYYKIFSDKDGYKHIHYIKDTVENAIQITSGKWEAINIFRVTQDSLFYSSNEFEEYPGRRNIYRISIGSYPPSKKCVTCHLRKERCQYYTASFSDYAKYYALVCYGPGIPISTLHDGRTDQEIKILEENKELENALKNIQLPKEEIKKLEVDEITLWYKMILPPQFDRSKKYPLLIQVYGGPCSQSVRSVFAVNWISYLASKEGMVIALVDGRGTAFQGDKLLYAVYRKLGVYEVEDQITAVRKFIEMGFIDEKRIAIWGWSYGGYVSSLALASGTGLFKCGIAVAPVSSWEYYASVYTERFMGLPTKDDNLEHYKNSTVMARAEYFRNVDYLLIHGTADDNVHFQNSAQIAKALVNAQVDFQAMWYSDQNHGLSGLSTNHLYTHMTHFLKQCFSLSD
Source text: as §1

How did the IC50 [1] turn out when `CC(C)(C)OC(=O)NC12CC3CC(CC(N)(C3)C1)C2` [US20250353833, Compound 4] was run?
Its IC50 is greater than 5 µM.

What about the IC50 [2] of the same compound?
Its IC50 is greater than 10 µM.

What about the IC50 [3] of the same compound?
The IC50 was greater than 10 µM.
